The results in this text go back to patent US20250228858A1, “ANTI-CANCER COMBINATION THERAPY” (Boehringer Ingelheim International GmbH, priority 2023, published 2025).

Test [1] relates to HER2-overexpressing human breast cancer cell line HCC1954. It counts as in vivo. Particulars: zongertinib 20 mg/kg qdx21 p.o., T-DXd 1 mg/kg q21dx1 i.v., pertuzumab 20 mg/kg q7dx3 i.p., alone or combined. The method, then: Day 1 was the first day, day 21 the last day of treatment and final day of analysis.
Cells are cultured in T75, T175 and 5-Layer tissue culture flasks at 37° C. and 5% CO2.
(§1) The statistical evaluation of the tumor volume and the body weight is conducted on day 21 (last day of the study). Apart from this, statistical analysis was performed as described in Example 1 (see paragraph 1.1.7), with no evaluation of tumor growth after stop of treatment.

The subject of test [2] is HER2-overexpressing human breast cancer cell line BT-474. Type of test: in vivo. The conditions noted are these: alone or combined. The method, then:
The study is performed in human breast cancer cell line BT-474 grown as orthotopic xenografts in NMRI-Foxn1^nu mice. Day 1 was the first day, day 42 the last day of treatment and final day of analysis.
BT-474 is a HER2-overexpressing human breast cancer cell line that can be obtained from ATCC (lot #61136823). Cells are cultured in T75, T175 and 5-Layer tissue culture flasks at 37° C. and 5% CO2. The medium used is Hybri-Care (ATCC, 46-X) supplemented with 1.5 g/L sodium bicarbonate (GIBCO, Ref.: 25080-060) and 10% FCS (Cytiva HyClone Characterized FBS, SH30084.03n). Cultures are split twice weekly with a ratio of 1:2-1:3.
To establish subcutaneous tumors, BT-474 cells are harvested by centrifugation, washed and resuspended in PBS+5% FCS at 5×10^7 cells/ml. […] cell suspension containing 5×10^6 cells is injected orthotopically into the right mammary fat pad of isoflurane anesthetized mice (1 site per mouse).
Pertuzumab can be purchased from Roche Pharma AG. Pertuzumab is diluted with saline (0.9%) and administered intraperitoneally with a volume of 10 ml/kg.
Mice in the control group are treated with vehicle, i.e.: • (i) 0.5% Natrosol, administered once daily for the duration of the treatment intragastrally by gavage needle with a volume of 10 ml/kg body weight; and • (ii) saline (0.9%), administered once every 3 weeks intravenously into the tail vein with a volume of 5 ml/kg; and • (iii) saline (0.9%), administered once every week intraperitoneally with a volume of 10 ml/kg.
Tumor volumes and side effects are monitored as described in Example 1 (see paragraph 1.1.6), except that control animals are sacrificed when the median tumor volume of the group reaches a size of approximately 470 mm^3.
The statistical evaluation of the tumor volume and the body weight is conducted on day 42 (last day of the study). Apart from this, statistical analysis was performed as described in Example 1 (see paragraph 1.1.7), with no evaluation of tumor growth after stop of treatment.

Test [3] has as its system HER2-overexpressing human breast cancer cell line SUM190PT. It counts as in vivo. As for the experimental part: The study is performed in human breast cancer cell line SUM190PT grown as subcutaneous xenografts in NMRI-Foxn1^nu mice. Day 1 was the first day, day 21 the last day of treatment and final day of analysis.
Cells are obtained and cultured as described in Example 8 (see paragraph 8.1.2).
Capecitabine can be purchased from Roche Pharma AG. Capecitabine is suspended with 0.5% Natrosol and administered intragastrally with a volume of 10 ml/kg.
Tumor volumes and side effects are monitored as described in Example 1 (see paragraph 1.1.6), except that control animals are sacrificed when the median tumor volume of the group reaches a size of approximately 540 mm^3.
as §1

Test [4] has as its system HER2-overexpressing human esophagus cancer cell line OE19. In words: OE19 subcutaneous xenograft, zongertinib with trastuzumab. Type of test: in vivo, NMRI-Foxn1^nu mice. Particulars: day 14; for Regressions >30%: tumors regressed/total (partial response). The method, then: The study is performed in human esophagus cancer cell line OE19 grown as subcutaneous xenografts in NMRI-Foxn1^nu mice. Day 1 was the first day, day 14 the last day of treatment and final day of analysis.
OE19 is obtained and cultured as described in Example 3 (see paragraph 3.1.2).
Mice in the control group are treated with vehicle, i.e.: • (iii) 0.5% Natrosol, administered once daily for the duration of the treatment intragastrally by gavage needle with a volume of 10 ml/kg body weight; and • (iv) saline (0.9%), administered once weekly intraperitoneally with a volume of 10 ml/kg.
Tumor volumes and side effects are monitored as described in Example 1 (see paragraph 1.1.6), except that control animals are sacrificed when the median tumor volume of the group reaches a size of approximately 640 mm^3.
The statistical evaluation of the tumor volume and the body weight is conducted on day 14 (last day of the study). Apart from this, statistical analysis was performed as described in Example 1 (see paragraph 1.1.7), with no evaluation of tumor growth after stop of treatment.

The test system of test [5] is HER2-overexpressing human ovarian cell line SK-OV-3. Put plainly: SK-OV-3 subcutaneous xenograft, zongertinib with T-DXd. Type of test: in vivo, NMRI-Foxn1^nu mice. The method, then:
The study is performed in human ovarian cancer cell line SK-OV-3 grown as subcutaneous xenografts in NMRI-Foxn1^nu mice. Day 1 was the first day, day 20 the last day of treatment and final day of analysis.
SK-OV-3 is a HER2-overexpressing human ovarian cancer cell line that can be obtained from ATCC (lot HTB-77). Cells are cultured in T75, T175 and 5-Layer tissue culture flasks at 37° C. and 5% CO2. The medium used is IMDM (PAN-Biotech, #P04-200150) supplemented with 10% FCS (Cytiva HyClone Characterized FBS, SH30084.03n). Cultures are split twice weekly with a ratio of 1:2-1:3.
To establish subcutaneous tumors, SK-OV-3 cells are harvested by centrifugation, washed and resuspended in PBS+5% FCS at 5×10^7 cells/ml. 100 μl cell suspension containing 5×10^6 cells is injected subcutaneously into the right flank of mice (1 site per mouse).
Apart from this, statistical analysis was performed as described in Example 1 (see paragraph 1.1.7), with no evaluation of tumor growth after stop of treatment.

Setting [6] is: zongertinib 20 mg/kg qdx14 p.o., trastuzumab 20 mg/kg q7dx2 i.p., alone or combined.

As for `C=CC(=O)NC1CCN(c2ncc3ncnc(Nc4ccc(Oc5ccc6c(c5)ncn6C)c(C)c4)c3n2)CC1` [Zongertinib, N-{1-[8-({3-methyl-4-[(1-methyl-1H-1,3-benzodiazol-5-yl)oxy]phenyl}amino)-[1,3]diazino [5,4-d]pyrimidin-2-yl]piperidin-4-yl}prop-2-enamide], the TGI stood at 68% in test [1] (day 21); 70% in test [2] (day 42, zongertinib 10 mg/kg qdx42 p.o., T-DXd 1 mg/kg q21dx2 i.v., pertuzumab 20 mg/kg q7dx6 i.p.); 53% in test [3] (day 21, zongertinib 10 mg/kg qdx21 p.o., capecitabine 400 mg/kg qdx21 p.o., trastuzumab 20 mg/kg q7dx3 i.p., alone or combined); 80% in test [4] (setting [6]); 91% in test [5] (day 15, zongertinib 10 mg/kg qdx20 p.o., T-DXd 7 mg/kg q21dx1 i.v., alone or combined). In addition, the “Regressions >30%” value is given as 0/8 in test [1] (tumors regressed/total (partial response)); 0/8 in test [2] (day 42, tumors regressed/total (partial response), zongertinib 10 mg/kg qdx42 p.o., T-DXd 1 mg/kg q21dx2 i.v., pertuzumab 20 mg/kg q7dx6 i.p.); 0/8 in test [3] (day 21, tumors regressed/total (partial response), zongertinib 10 mg/kg qdx21 p.o., capecitabine 400 mg/kg qdx21 p.o., trastuzumab 20 mg/kg q7dx3 i.p., alone or combined); 0/8 in test [4] (setting [6]); “no partial response” in test [4] (zongertinib 20 mg/kg qdx14 p.o., trastuzumab 20 mg/kg q7dx2 i.p., alone or combined, listed as zongertinib); 0/8 in test [5] (day 20, tumors regressed/total (partial response), zongertinib 10 mg/kg qdx20 p.o., T-DXd 7 mg/kg q21dx1 i.v., alone or combined). For the same compound, the “stable disease (tumors remained stable)” value in test [2] (day 42, zongertinib 10 mg/kg qdx42, T-DXd 1 mg/kg q21dx2) was 2 out of 8. The “effect on tumor growth (median tumor volumes over time)” value was “delayed tumor growth, but median tumor volumes increased in the course of the experiment” in test [2] (zongertinib 10 mg/kg qdx42, T-DXd 1 mg/kg q21dx2, pertuzumab 20 mg/kg q7dx6) and “delayed tumor growth but did not shrink tumors” in test [3] (zongertinib 10 mg/kg qdx21, capecitabine 400 mg/kg qdx21, trastuzumab 20 mg/kg q7dx3, alone or triple combination). For the same compound, the stable disease result in test [4] (number of tumors out of 8, zongertinib 20 mg/kg qdx14, trastuzumab 20 mg/kg q7dx2, monotherapies) was “no stable disease”. The stable diseases in test [5] (day 20, zongertinib 10 mg/kg qdx20 monotherapy) was 2 out of 8.
